# Results published in patent EP4563571A1, “PRMT5 INHIBITORS” (Beijing Earthwise Technology Co., Ltd., priority 2022, dated 2024).
# Test system: HCT116^MTAP Deletion cells
# Assay: Anti-proliferation assay on cells (Cell-Titer Glo, 10 days)
# Format: cell-based
# Conditions: 240 h, HCT116^MTAP Deletion cells, 10 days incubation, CTG readout; read-out: HCT116^MTAP Deletion GI50
# Method: HCT116^MTAP Deletion cells were from Pharmaron (China); HCT116 cells were from ATCC; McCoy's 5A medium was purchased from Invitrogen (USA); penicillin-streptomycin and fetal bovine serum were purchased from Gibco (USA); a 384-well plate was purchased from PerkinElmer (USA); and Cell-Titer Glo reagent was purchased from Promega (USA).
# Compound dissolution: All the compounds were dissolved in dimethyl sulfoxide (DMSO) and then stored. The compounds were stored at room temperature in a dry condition for 3 months for short term storage or at -20 °C for long term storage.
# Cell culture and passaging
# The cells were cultured strictly in accordance with ATCC requirements. The cell culture medium (McCoy's 5A medium + 10% fetal bovine serum + 1% penicillin + streptomycin) was transferred to a 15 mL centrifuge tube and centrifuged at 1000 rpm for 5 min. The supernatant was removed. The cells were resuspended with complete culture medium, inoculated into a culture dish at the required density, and cultured in an incubator at 37 °C, 95% humid air, and 5% carbon dioxide. The culture medium was replenished or the cells were passaged every 2-3 days depending on the cell growth condition.
# Cell proliferation activity assay
# When the confluency of cells in the culture dish reached about 90%, the cells were washed twice with PBS, and then treated with trypsin to become single cells. The cells were counted, and 40µl of the cells was inoculated into each well of a 384-well plate (50 cells/well). The plate was equilibrated at 37 °C and 5% carbon dioxide for 10 to 15 minutes. The compounds were injected into the 384-well plate using Echo550, and positive control and negative control (0.1% DMSO) were set up. Each compound was subjected to a 3-fold dilution, resulting in 10 concentration gradients, in duplicate, and the content of DMSO was 0.1%. The 384-well plate was incubated in a cell culture incubator for 10 days.
# Then, 40 µl of cell proliferation assay reagent (CTG) was added to the 384-well plate, and the plate was shaken to mix well. Then, the 384-well plate was incubated at 37 °C and 5% carbon dioxide in the dark for 30 minutes. The data were read using the Envision multifunctional microplate reader. […] According to the different drug concentrations and their corresponding inhibition rates, the GI50 curve was drawn using GraphPad 8.0 software. The data were analyzed, and the final IC50 value was obtained.
row,SMILES,GI50 [nM]
1,CCN(C(=O)C(=O)Nc1cnc(N)c2c1cnn2C)C1COc2cc(C(F)(F)F)ccc21 (stereo not drawn) [Example 121],< 10
2,CN(C(=O)C(=O)Nc1cnc(N)c2c1cnn2C)C1COCc2nc(-c3ccccc3)ccc21 (stereo not drawn) [Example 219],< 10
3,CCC(C)N(Cc1cc(C)n(C)n1)C(=O)C(=O)Nc1cnc(N)c(C)c1 (stereo not drawn) [Example 75],100 to 1000
4,CN(C(=O)C(=O)Nc1cnc(N)c2c1cnn2C)C1COCc2cc(S(C)(=O)=O)ccc21 (stereo not drawn) [Example 227],10 to 100
5,Cc1cc(NC(=O)C(=O)N(Cc2ccc(C(F)(F)F)cn2)CC23CC(C2)C3)cnc1N [Example 53],100 to 1000
6,Cc1cc(NC(=O)C(=O)N(Cc2ccc(C(F)(F)F)cn2)CC2CC(F)(F)C2)cnc1N [Example 70],100 to 1000
7,CN(Cc1ccc2sc(C3CCOCC3)nc2c1)C(=O)C(=O)Nc1cnc(N)c2c1COC2 [Example 67],1000 to 10000
8,Cc1ncc(-c2cc3c(cn2)C(N(C)C(=O)C(=O)Nc2cnc(N)c4c2cnn4C)COC3)s1 (stereo not drawn) [Example 222],10 to 100
9,CN(C(=O)C(=O)Nc1cnc(N)c2c1cnn2C)C1COCc2cc(C(F)(F)C(F)(F)F)ccc21 (stereo not drawn) [Example 238],< 10
10,Cc1cc(NC(=O)C(=O)N(Cc2ccc(C(F)(F)F)cn2)C2CCCc3cn[nH]c32)cnc1N (stereo not drawn) [Example 60],100 to 1000
11,CN(C(=O)C(=O)Nc1cnc(N)c2c1cnn2C)C1COCc2cc(C(C)(C)C)ccc21 (stereo not drawn) [Example 217],< 10
12,CN(C(=O)C(=O)Nc1cnc(N)c2c1cnn2C)C1COCc2cc(C3=CCCOC3)ccc21 (stereo not drawn) [Example 108],10 to 100
13,C[C@H](C1CC1)N(Cc1ccc(C(F)(F)F)cn1)C(=O)C(=O)Nc1cnc(N)c2c1cnn2C [Example 51],10 to 100
14,CN(C(=O)C(=O)Nc1cnc(N)c2c1cnn2C)C1COC(C)(C)c2cc(C(F)(F)F)ccc21 (stereo not drawn) [Example 147],10 to 100
15,Cn1ncc2c(NC(=O)C(=O)NC3COCc4cc(C(F)(F)F)ccc43)cnc(N)c21 (stereo not drawn) [Example 119],1000 to 10000
16,CN(C(=O)C(=O)Nc1cnc(N)c2c1cnn2C)C1COCc2cc(C3(C(F)(F)F)CC3)ccc21 (stereo not drawn) [Example 237],< 10
17,CCC(C)N(Cc1cnc(C(F)(F)F)nc1)C(=O)C(=O)Nc1cnc(N)c(C)c1 (stereo not drawn) [Example 58],> 10000
18,CCC(C)N(Cc1cc(C(F)(F)F)ccn1)C(=O)C(=O)Nc1cnc(N)c(C)c1 (stereo not drawn) [Example 105],100 to 1000
19,CCC(C)N(Cc1ccc(C(F)(F)F)nc1)C(=O)C(=O)Nc1cnc(N)c(C)c1 (stereo not drawn) [Example 57],100 to 1000
20,CN(C(=O)C(=O)Nc1cnc(N)c2c1cnn2C)C1COc2cc(-c3ccc(C4CC4)nc3)ccc21 (stereo not drawn) [Example 239],< 10
21,[2H]C([2H])([2H])N(C(=O)C(=O)Nc1cnc(N)c2c1cnn2C)C1COCc2cc(C(F)(F)F)ccc21 (stereo not drawn) [Example 109],< 10
22,COc1ccc(-c2ccc3c(c2)COCC3N(C)C(=O)C(=O)Nc2cnc(N)c3c2cnn3C)cn1 (stereo not drawn) [Example 202],< 10
23,Cn1ncc2c(NC(=O)C(=O)N(CC3CC3)C3COc4cc(C(F)(F)F)ccc43)cnc(N)c21 (stereo not drawn) [Example 123],< 10
24,CN(C(=O)C(=O)Nc1cnc(N)c2c1COC2)C1CCOCc2cc(C(F)(F)F)ccc21 (stereo not drawn) [Example 49],100 to 1000
25,CCC(C)N(Cc1cccc(C(F)(F)F)n1)C(=O)C(=O)Nc1cnc(N)c(C)c1 (stereo not drawn) [Example 87],100 to 1000
26,CN(C(=O)C(=O)Nc1cnc(N)c2c1cnn2C)C1COc2cc(-c3ccccc3F)ccc21 (stereo not drawn) [Example 214],< 10
27,CCC(C)N(Cc1ncc(C)s1)C(=O)C(=O)Nc1cnc(N)c(C)c1 (stereo not drawn) [Example 66],1000 to 10000
28,CN(C(=O)C(=O)Nc1cnc(N)c2c1cnn2C)C1COc2cc(C(F)(F)F)cc(F)c21 (stereo not drawn) [Example 176],10 to 100
29,CC(C)CN(C(=O)C(=O)Nc1cnc(N)c2c1cnn2C)C1COCc2cc(C(F)(F)F)ccc21 (stereo not drawn) [Example 103],< 10
30,CN(C(=O)C(=O)Nc1cnc(N)c2c1cnn2C)C1COCc2cc(C3(C#N)CC3)ccc21 (stereo not drawn) [Example 218],< 10

# Same assay, conditions: HCT116^MTAP Deletion cells, 10 days incubation, CTG readout; read-out: HCT116^MTAP Deletion GI50
row,SMILES,GI50 [nM]
1,"Cc1cc(NC(=O)C(=O)N(Cc2ccc(C(F)(F)F)cn2)C2CCCOC2)cnc1N (single isomer, unassigned) [Example 14-P2]",100 to 1000
2,CN(C(=O)C(=O)Nc1cnc(N)c2c1cnn2C)C1COc2cc(-c3cnn(C(F)(F)F)c3)ccc21 (stereo not drawn) [Example 213],< 10
3,"CCC(C)N(Cc1ccc(C(F)(F)F)cn1)C(=O)C(=O)Nc1cnc(OC)c(C(N)=O)c1 (single isomer, unassigned) [Example 5-P2]",10 to 100
4,CN(C(=O)C(=O)Nc1cnc(N)c2c1cnn2C)C1COc2cc(-c3cnn(C)c3)ccc21 (stereo not drawn) [Example 140-P2],10 to 100
5,CN(C(=O)C(=O)Nc1cnc(N)c2c1cnn2C)C1COc2cc(-c3ccnn3C3CC3)ccc21 (stereo not drawn) [Example 212],< 10
6,Cc1cc(N)ncc1NC(=O)C(=O)N(Cc1ccc(C(F)(F)F)cn1)[C@H](C)c1ncccn1 [Example 26],100 to 1000
7,Cc1cc(NC(=O)C(=O)N(Cc2ccc(C(F)(F)F)cn2)C2CC2)cnc1N [Example 12],100 to 1000
8,CN(C(=O)C(=O)Nc1cnc(N)c2c1cnn2C)C1COCc2c1ccc(F)c2F (stereo not drawn) [Example 138],10 to 100
9,"Cc1cc(NC(=O)C(=O)N(Cc2ccc(C(F)(F)F)cn2)C(C)c2cscn2)cnc1N (single isomer, unassigned) [Example 19-P1]",10 to 100
10,CN(C(=O)C(=O)Nc1cnc(N)c2c1cnn2C)C1COc2cc(-c3cnn(C4CC4)c3)ccc21 (stereo not drawn) [Example 211],< 10
11,CN(C(=O)C(=O)Nc1cnc(N)c2c1cnn2C)C1COCc2c1ccc(Cl)c2Cl (racemic) [compound 168],< 10
12,"CN(C(=O)C(=O)Nc1cnc(N)c2c1cnn2C)C1COCc2nc(C(F)(F)F)ccc21 (single isomer, unassigned) [Example 152-P1]",100 to 1000
13,CCOc1ccc(CN(C(=O)C(=O)Nc2cnc(N)c(C)c2)[C@H](C)c2ncccn2)nn1 [Example 35],10 to 100
14,CCC(C)N(Cc1cnn(C)c1)C(=O)C(=O)Nc1cnc(N)c(C)c1 (stereo not drawn) [Example 73],> 10000
15,"CCC(C)N(Cc1ccc(C(F)(F)F)cn1)C(=O)C(=O)Nc1cnc(N)c(C)c1 (single isomer, unassigned) [Example 45-P1]",10 to 100
16,"CN(C(=O)C(=O)Nc1cnc(N)c2c1cnn2C)C1COc2cc(C3=CCOCC3)ccc21 (single isomer, unassigned) [Example 153-P1]",< 10
17,CN(C(=O)C(=O)Nc1cnc(N)c2c1cnn2C)C1COc2cc(F)c(F)cc21 (racemic) [compound 172],10 to 100
18,CN(C(=O)C(=O)Nc1cnc(N)c2c1cnn2C)C1COCc2c1ccc(F)c2F (stereo not drawn) [Example 141-P2],100 to 1000
19,CCC(C)N(Cc1ccc(C2=CCN(C(=O)OC)CC2)cn1)C(=O)C(=O)Nc1cnc(N)c(C)c1 (stereo not drawn) [Example 125-P2],< 10
20,Cc1cc(NC(=O)C(=O)N(Cc2ccc(C(F)(F)F)cn2)C2CCC2)cnc1N [Example 13],100 to 1000
21,Cc1cc(NC(=O)C(=O)N(C)C2COCc3cc(C4=CCOCC4)ccc32)cnc1N (racemic) [compound 162],100 to 1000
22,CCC(C)N(Cc1ccc(C(F)(F)F)cn1)C(=O)C(=O)Nc1cnc(N)c2c1cnn2C (stereo not drawn) [Example 46-P2],10 to 100
23,CCC(C)N(Cc1ccc(C(F)(F)F)cn1)C(=O)C(=O)Nc1cnc(N)c2c1COC2C (stereo not drawn) [Example 10],10 to 100
24,Nc1ncc(NC(=O)C(=O)N(Cc2ccc(C(F)(F)F)cn2)CC2CCC2)c2c1COC2 [Example 41],100 to 1000
